Source: publication PMC5844868, “Increased intracellular activity of MP1102 and NZ2114 against Staphylococcus aureus in vitro and in vivo” (Scientific Reports, 2018)
≈ marks a conversion by molar mass, not a printed value. Where two headings read alike, the source gives them in different places.

What was measured:
[1] = test system: macrophages; details: at 24 h; cited from earlier work
Source text: Due to several limitations (including protein binding conditions and differences in the pharmacokinetics) in the in vitro macrophage intracellular model, an in vivo mouse peritonitis model was also examined to further evaluate the intracellular efficiency of MP1102 and NZ2114. The intracellular bacterial killing efficacy of MP1102 and NZ2114 was decreased in vivo compared to extracellular killing, though the difference was less than the in vitro model, which may be related to the complex in vivo environment weakening the antibacterial efficiency and the eradication of extracellular bacteri ...

[2] = test system: MSSA ATCC25923; test: MIC in MHB at pH 7.3 and 5.0; assay type: cell-based; details: Staphylococcus aureus
[3] = test system: MSSA ATCC25923; test: Mouse peritonitis model; assay type: in vivo; details: 5 mg/kg, 24 h
Protocol: The mice were infected by peritoneal injection with different S. aureus strains, including MSSA ATCC25923 (5 × 10^8 CFU), MRSA ATCC43300 (5 × 10^8 CFU) and high virulent CVCC546 (5 × 10^7 CFU), and treated with a single dose of drugs ([…], 20, 30 and 40 mg/kg for ATCC43300 and CVCC546) at 10 min after infection. Twenty-four hours after treatment, the mice were killed and peritoneal fluids were obtained by washing with 5 ml ice-cold PBS. The total number of bacteria in the fluids was determined before any further procedures and then divided into two equal fractions of 1.5 ml each for the following purposes: i) for extracellular bacteria quantification, one fraction was centrifuged for 10 min at 4 °C (300 g) and the supernatant CFU count was quantified and ii) for intracellular bacteria quantification, the other fraction was centrifuged for 5 min at 4 °C (1,000 rpm). The cells were collected and treated with 100 μg/ml gentamicin (MSSA ATCC25923) or 50 μg/ml lysostaphin (MRSA ATCC43300 and high virulent CVCC546) for 1 h at 37 °C to kill extracellular bacteria. The cells were washed twice with ice-cold PBS to remove any anti-extracellular bacterial drug. Subsequently, the cells were lysed and counted as described above for the in vitro experiment method[14],[54].

[4] = test system: MRSA ATCC43300; test: Extracellular dose-response in broth, 24 h; assay type: cell-based, Staphylococcus aureus
Protocol: (§1) Dose-response curves for the extracellular activities of the peptides were performed as previously described with some modifications[2],[14],[56],[57]. For extracellular activity, MSSA ATCC25923, MRSA ATCC43300 and high virulent S. aureus CVCC546 cells were adjusted to a density of 10^5 CFU/ml.
(§2) The Hill equation was used to analyze the dose-effect relationships of the intracellular and extracellular activities of MP1102 and NZ2114 against S. aureus. The Emax, Cs and goodness of fit (R^2) were calculated by non-linear regression using GraphPad Prism version 6 (GraphPad Prism Software, San Diego, CA, USA). The other statistical procedures, means and SEMs were performed and calculated using IBM SPSS Statistics 21.0.

[5] = test system: MSSA ATCC25923; test: Extracellular dose-response in broth, 24 h; assay type: cell-based, Staphylococcus aureus
Protocol: as §1, §2

[6] = test system: Virulent S. aureus CVCC546; test: Extracellular dose-response in broth, 24 h; assay type: cell-based, Staphylococcus aureus
Protocol: as §1, §2

[7] = test system: MSSA ATCC25923 phagocytosed by RAW 264.7 macrophages; test: Intracellular dose-response in RAW 264.7 macrophages, 24 h; assay type: cell-based, Staphylococcus aureus; details: Hill equation
Protocol: (§3) For intracellular activity, RAW 264.7 macrophages (2.5 × 10^5 cells/ml) were seeded into a 6-well plate (1.5 ml/well) and cultured for 24 h in DMEM with 10% FBS (without antibiotics). Meanwhile, mid-log phase S. aureus strains (MSSA ATCC25923, MRSA ATCC43300 and high virulent CVCC546) were collected by centrifugation, diluted to a concentration of 2.5 × 10^7 CFU/ml in DMEM with 10% FBS (without antibiotic), and incubated with RAW 264.7 macrophages (1.5 ml/well) for 0.5 h. In total, 100 μg/ml gentamicin (for MSSA ATCC25923) or 50 μg/ml lysostaphin (for MRSA ATCC43300 and virulent CVCC546) was added to the cells and incubated for 1 h to remove non-phagocytosed bacteria. […] The numbers of intracellular bacteria were measured at 0 h and 24 h using the above method.
as §2

[8] = test system: Virulent S. aureus CVCC546 phagocytosed by RAW 264.7 macrophages; test: as above; assay type: cell-based, Staphylococcus aureus
Protocol: as §3, §2

[9] = test system: MRSA ATCC43300 phagocytosed by RAW 264.7 macrophages; test: as above; assay type: cell-based, Staphylococcus aureus
Protocol: as §3, §2

[10] = test system: MRSA ATCC43300; test: MIC in MHB at pH 7.3 and 5.0; assay type: cell-based; details: Staphylococcus aureus
[11] = test system: RAW 264.7 macrophages; assay type: cell-based, mouse; details: 24 h, MTT
Protocol: The cytotoxicity of MP1102 and NZ2114 was tested by a colorimetric 3-(4, 5-dimethyl-2-thiazolyl)-2, 5-diphenyl-2-H-tetrazolium bromide (MTT) assay. Cells were added into 96-well microtiter plates (2.5 × 10^4 cells/well) and incubated for 24 h. After another 24 h incubation with MP1102 and NZ2114 (1 to 256 μg/ml), MTT solution was added and incubated for 4 h. Followed the removing of the MTT, dimethyl sulfoxide (DMSO) (150 μl/well) was added and the absorbance was measured at 570 nm. Untreated cells were used as a control. The cell survival rate was calculated using the following formula: survival rate (%) = Abs570 nm of treated sample / Abs570 nm of control × 100. The cytotoxicity detection was repeated in triplicate.
118 were incubated with 1-256 μg/ml for 24 h and subsequently cell viability was determined using the MTT
119 assay. Results are means ± S.D. for three experiments.
(1 picture or pasted object on this page, not shown here)

[12] = Hill equation, 95% CI in brackets
[13] = change at 24 h from original inoculum, extrapolated, Hill equation
[14] = static concentration, graphical interpolation
[15] = Intracellular, Hill equation, 95% CI in brackets
[16] = Intracellular, change at 24 h from original inoculum, extrapolated, Hill equation

## CN[C@H](CC(C)C)C(=O)N[C@H]1C(=O)N[C@@H](CC(N)=O)C(=O)N[C@H]2C(=O)N[C@H]3C(=O)N[C@H](C(=O)N[C@H](C(=O)O)c4cc(O)cc(O)c4-c4cc3ccc4O)[C@H](O)c3ccc(c(Cl)c3)Oc3cc2cc(c3O[C@@H]2O[C@H](CO)[C@@H](O)[C@H](O)[C@H]2O[C@H]2C[C@](C)(N)[C@H](O)[C@H](C)O2)Oc2ccc(cc2Cl)[C@H]1O [Vancomycin]
[1]
  accumulation in macrophages: up to 8 fold
[2]; pH 5, read-out: MICs
  MIC: < 0.004 µg/mL
[2]; pH 7.3, read-out: MICs
  MIC: 0.125 µg/mL (≈ 0.0863 µM)
[3]
  effect on bacterial load: no significant effects were observed
[4]; [12]
  EC50: 5.40 multiples of the MIC
[4]; [13]
  Emax (log CFU, 95% CI): −5.89 log CFU
[4]; [14]
  Cs: ~5.88 multiples of the MIC
[5]; [12]
  EC50: 1.87 multiples of the MIC
[5]; [13]
  Emax (log CFU, 95% CI): −5.37 log CFU
[5]; [14]
  Cs: ~1.48 multiples of the MIC
[6]; [12]
  EC50: 0.92 multiples of the MIC
[6]; [13]
  Emax (log CFU, 95% CI): −5.85 log CFU
[6]; [14]
  Cs: ~1.10 multiples of the MIC
[7]; 95% CI in brackets
  EC50: 24.29 multiples of the MIC
[7]; change at 24 h from original inoculum, extrapolated to infinitely high concentration
  Emax (log CFU, 95% CI): −4.85 log CFU
[8]; [15]
  EC50: 3.53 multiples of the MIC
[8]; [16]
  Emax (log CFU, 95% CI): 0.46 log CFU
[8]; intracellular, 24 h
  resistant rates for the highest test concentrations compared to the untreated group: 99.68%
[9]; [15]
  EC50: 1.10 multiples of the MIC
[9]; [16]
  Emax (log CFU, 95% CI): 0.43 log CFU
[9]; intracellular, 24 h
  resistant rates for the highest test concentrations compared to the untreated group: 93.03%
[10]; pH 5, read-out: MICs
  MIC: 1 µg/mL (≈ 0.69 µM)
[10]; pH 7.3, read-out: MICs
  MIC: 1 µg/mL (≈ 0.69 µM)
[11]; 128 μg/ml
  survival rate: 100%
[11]; 256 μg/ml
  survival rate: 85.9%
